{
  "source": "patent US9725449B2",
  "about": "“Tricyclic compounds as anticancer agents” (BRISTOL-MYERS SQUIBB COMPANY, priority 2015, dated 2017)",
  "data": [
    {"molecular_target": "BRD4 (Homo sapiens, UniProt O60885)", "assay": "Time resolved fluorescence resonance energy transfer (TR-FRET) binding assay, bromodomain BRD4", "conditions": "one of the FRET assays described; read-out: FRET BRD4 IC50", "units": {"IC50": "nM"}, "values": [
      {"smiles": "COc1nnn(C)c1-c1cnc2c3ccc(N4CCS(=O)(=O)CC4)nc3n([C@H](c3ccccc3F)C3CCOCC3)c2c1", "note": "[Example 256, 4-{8-[(S)-(2-Fluorophenyl)(oxan-4-yl)methyl]-5-(4-methoxy-1-methyl-1H-1,2,3-triazol-5-yl)-3,8,10-triazatricyclo[7.4.0.0^2,^7]trideca-1(13),2(7),3,5,9,11-hexaen-11-yl}-1λ^6,4-thiomorpholine-1,1-dione]", "IC50": "< 10"},
      {"smiles": "COc1nc(Cl)cc2c1c1ncc(-c3c(C)nnn3C)cc1n2C(c1ncccc1O)C1CCOCC1", "note": "(stereo not shown) [Example 306, 2-({11-Chloro-13-methoxy-5-[4-(^2H3)methyl-1-methyl-1H-1,2,3-triazol-5-yl]-3,8,12-triazatricyclo[7.4.0.0^2,^7]trideca-1(9),2(7),3,5,10,12-hexaen-8-yl}(oxan-4-yl)methyl)pyridin-3-ol]", "IC50": "< 10"},
      {"smiles": "COc1nccc2c3ncc(-c4c(C)nnn4C)cc3n(C(c3cccc(F)c3)C3CCOCC3)c12", "note": "(single isomer, unassigned) [Example 20, 5-(Dimethyl-1H-1,2,3-triazol-5-yl)-8-[(3-fluorophenyl)(oxan-4-yl)methyl]-10-methoxy-3,8,11-triazatricyclo[7.4.0.0^2,^7]trideca-1(13),2(7),3,5,9,11-hexaene]", "IC50": "< 10"},
      {"smiles": "[2H]C([2H])([2H])c1nnn(C)c1-c1cc2c(cn1)c1ncc(C(C)(C)O)cc1n2[C@H](c1ccccc1)C1CCOCC1", "note": "[Example 364, 2-{11-[4-(^2H3)Methyl-1-methyl-1H-1,2,3-triazol-5-yl]-8-[(S)-(oxan-4-yl)(phenyl)methyl]-3,8,12-triazatricyclo[7.4.0.0^2,^7]trideca-1(9),2,4,6,10,12-hexaen-5-yl}propan-2-ol]", "IC50": "< 10"},
      {"smiles": "Cc1cc([C@H](C2CCOCC2)n2c3cc(-c4c(C)nnn4C)ncc3c3ncc(C(C)(C)O)cc32)no1", "note": "[Example 365]", "IC50": "< 10"},
      {"smiles": "Cc1noc(C)c1-c1cnc2c3c(NS(C)(=O)=O)ncc(S(C)(=O)=O)c3n([C@H](c3ccccc3)C3CCOCC3)c2c1", "note": "[Example 102, N-[5-(Dimethyl-1,2-oxazol-4-yl)-10-methanesulfonyl-8-[(S)-oxan-4-yl(phenyl)methyl]-3,8,12-triazatricyclo[7.4.0.0^2,^7]trideca-1(13),2(7),3,5,9,11-hexaen-13-yl]methanesulfonamide]", "IC50": "< 10"},
      {"smiles": "CSc1nccc2c3ncc(-c4c(C)nnn4C)cc3n([C@H](c3ccccc3F)C3CCOCC3)c12", "note": "[Example 31, 5-(Dimethyl-1H-1,2,3-triazol-5-yl)-8-[(S)-(2-fluorophenyl)(oxan-4-yl)methyl]-10-(methylsulfanyl)-3,8,11-triazatricyclo[7.4.0.0^2,^7]trideca-1(13),2(7),3,5,9,11-hexaene]", "IC50": "< 10"},
      {"smiles": "[2H]C([2H])([2H])c1nnn(C)c1-c1cnc2c3ccc(N(C)CCNC)nc3n([C@H](c3ccccc3F)C3CCOCC3)c2c1", "note": "[Example 236, 8-[(S)-(2-Fluorophenyl)(oxan-4-yl)methyl]-N-methyl-5-[4-(^2H3)methyl-1-methyl-1H-1,2,3-triazol-5-yl]-N-[2-(methylamino)ethyl]-3,8,10-triazatricyclo[7.4.0.0^2,^7]trideca-1(13),2(7),3,5,9,11-hexaen-11-amine]", "IC50": "< 1"},
      {"smiles": "[2H]C([2H])([2H])c1nnn(C)c1-c1cnc2c3c(NCC(F)F)ncc(S(C)(=O)=O)c3n([C@H](c3ccccc3)C3CCOCC3)c2c1", "note": "[Example 117, N-(2,2-Difluoroethyl)-10-methanesulfonyl-5-[4-(^2H3)methyl-1-methyl-1H-1,2,3-triazol-5-yl]-8-[(S)-oxan-4-yl(phenyl)methyl]-3,8,12-triazatricyclo[7.4.0.0^2,^7]trideca-1(13),2(7),3,5,9,11-hexaen-13-amine]", "IC50": "< 10"},
      {"smiles": "CC(=O)c1cnc2c3ccc(-c4c(C)nnn4C)nc3n([C@H](c3ccccc3)C3CCOCC3)c2c1", "note": "[Example 379]", "IC50": "< 1"}
    ]}
  ]
}
